According to the NIST ThermoML archive (doi:10.1021/acs.jced.8b00132):
“And” between values parts separate entries of the source, which are not always exact repeats. Equal entries are not always repeated. Numbers after ± are expanded uncertainties.

Conditions: transient hot wire

O=C(C(F)(F)C(F)(F)F)C(F)(C(F)(F)F)C(F)(F)F [dodecafluoro-2-methylpentan-3-one]
Conditions	thermal conductivity
359 K, 91 kPa, Gas	0.0172 ± 0.0011 W/m/K and 0.01701 ± 0.001 W/m/K
359.01 K, 17992 kPa, Liquid	0.05723 ± 0.0012 W/m/K
359.02 K, 33597 kPa, Liquid	0.06346 ± 0.0013 W/m/K
359.03 K, 33605 kPa, Liquid	0.06342 ± 0.0013 W/m/K
359.05 K, 56095 kPa, Liquid	0.07054 ± 0.0014 W/m/K
359.05 K, 56112 kPa, Liquid	0.07057 ± 0.0014 W/m/K
359.07 K, 256 kPa, Gas	0.0162 ± 0.001 W/m/K
359.07 K, 257 kPa, Gas	0.01618 ± 0.001 W/m/K
359.07 K, 11964 kPa, Liquid	0.05443 ± 0.0011 W/m/K
359.07 K, 11965 kPa, Liquid	0.05441 ± 0.0011 W/m/K
359.13 K, 188 kPa, Gas	0.01636 ± 0.001 W/m/K
359.13 K, 24956 kPa, Liquid	0.06016 ± 0.0012 W/m/K
359.14 K, 7109 kPa, Liquid	0.05182 ± 0.0011 W/m/K
359.14 K, 7110 kPa, Liquid	0.05179 ± 0.0011 W/m/K
359.14 K, 24956 kPa, Liquid	0.06017 ± 0.0012 W/m/K
359.14 K, 43845 kPa, Liquid	0.06681 ± 0.0014 W/m/K
359.14 K, 43855 kPa, Liquid	0.06693 ± 0.0014 W/m/K
359.16 K, 26 kPa, Gas	0.01687 ± 0.001 W/m/K
359.16 K, 67834 kPa, Liquid	0.07385 ± 0.0015 W/m/K
359.17 K, 67856 kPa, Liquid	0.07389 ± 0.0015 W/m/K
359.19 K, 3417 kPa, Liquid	0.04968 ± 0.001 W/m/K
359.19 K, 3419 kPa, Liquid	0.04955 ± 0.001 W/m/K
359.22 K, 17993 kPa, Liquid	0.05729 ± 0.0012 W/m/K and 0.05726 ± 0.0012 W/m/K
359.22 K, 33590 kPa, Liquid	0.06336 ± 0.0013 W/m/K
359.23 K, 33591 kPa, Liquid	0.06345 ± 0.0013 W/m/K
359.24 K, 91 kPa, Gas	0.01701 ± 0.001 W/m/K and 0.01691 ± 0.001 W/m/K
359.24 K, 56073 kPa, Liquid	0.07065 ± 0.0014 W/m/K
359.24 K, 56086 kPa, Liquid	0.07061 ± 0.0014 W/m/K
359.27 K, 352 kPa, Liquid	0.04733 ± 0.00099 W/m/K and 0.04736 ± 0.00099 W/m/K
359.28 K, 352 kPa, Liquid	0.04735 ± 0.00099 W/m/K
359.29 K, 352 kPa, Liquid	0.04741 ± 0.00099 W/m/K
359.29 K, 11963 kPa, Liquid	0.05419 ± 0.0011 W/m/K
359.29 K, 11964 kPa, Liquid	0.05442 ± 0.0011 W/m/K
359.3 K, 256 kPa, Gas	0.01611 ± 0.001 W/m/K
359.31 K, 256 kPa, Gas	0.01615 ± 0.001 W/m/K
359.32 K, 43840 kPa, Liquid	0.06681 ± 0.0014 W/m/K
359.33 K, 24951 kPa, Liquid	0.06022 ± 0.0012 W/m/K
359.34 K, 24951 kPa, Liquid	0.06017 ± 0.0012 W/m/K
359.34 K, 43843 kPa, Liquid	0.06687 ± 0.0014 W/m/K
359.35 K, 67807 kPa, Liquid	0.07425 ± 0.0015 W/m/K
359.36 K, 7099 kPa, Liquid	0.0518 ± 0.0011 W/m/K
359.36 K, 67822 kPa, Liquid	0.07392 ± 0.0015 W/m/K
